In this assay the target is T1, UGT93Y1 (Camellia sinensis, UniProt A0A4S4F2U3).
T1 construct: gene TEA_008645; UGT 467 aa, fusion about 80 kDa; His29, Asp134, PSPG box Trp342-Gln385, TSS 413-415
Put plainly: UDP Glo glycosyltransferase assay. It is filed as biochemical. The following applies: UDP-glucose as donor; 30 °C; 0-1000 µM menthol; kinetic fit with substrate inhibition, two-site sequential model with identical dissociation constants.

T1 sequence (A0A4S4F2U3 entry or part of it): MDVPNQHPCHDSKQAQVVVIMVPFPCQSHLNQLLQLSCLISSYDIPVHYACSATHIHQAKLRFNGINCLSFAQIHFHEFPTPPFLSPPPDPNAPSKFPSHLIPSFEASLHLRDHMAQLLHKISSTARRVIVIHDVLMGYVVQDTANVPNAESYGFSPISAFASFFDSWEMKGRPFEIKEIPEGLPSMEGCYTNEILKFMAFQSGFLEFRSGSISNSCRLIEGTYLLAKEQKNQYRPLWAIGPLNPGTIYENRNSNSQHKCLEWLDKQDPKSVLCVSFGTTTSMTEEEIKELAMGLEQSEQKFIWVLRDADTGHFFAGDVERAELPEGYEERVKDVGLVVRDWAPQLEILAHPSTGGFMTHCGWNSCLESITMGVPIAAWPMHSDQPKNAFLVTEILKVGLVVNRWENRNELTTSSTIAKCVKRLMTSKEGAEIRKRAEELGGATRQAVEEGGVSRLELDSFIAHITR

For the compound `CC1CCC(C(C)C)C(O)C1` (racemic) [(±)-menthol], the affinity, expressed as Kd, was 453 µM.

The record behind these values is paper PMC8470988, “Glucosylation of (±)-Menthol by Uridine-Diphosphate-Sugar Dependent Glucosyltransferases from Plants” (Molecules, 2021).
